# Tests used:
# [1] = system: 60 to 80 years old subjects (Impaired Elderly and Healthy Elderly); test: Verbal Learning Task (VLT) in 60 to 80 years old subjects, interim analysis; format: in vivo, human
# Method: The study is conducted according to a double-blind, placebo-controlled, four-period cross-over design. Forty healthy subjects, both male and female within an age range of 60 to 80 years are planned to be included in the study in 2 groups: 1) 20 subjects with a memory performance between 1-2 Standard Deviation below the average for their age, gender, and educated level (Impaired Elderly) and 2) 20 subjects with age (±3 years), gender, and educational level matched (in order to speed up the study matching was stopped after the interim analysis) with an average memory performance between 0.5 Standard Deviation below and 0.5 Standard Deviation above from normative values (Healthy Elderly). Classification in terms of impaired or healthy elderly will be determined by a one-off testing of memory performance using the Rey Verbal Learning Task (Rey A; L'examen psychologique dans les cas d'encephalopathy traumatique 1958 Paris; Presses Universitaire de France; or Van der Elst et al; J Int Neuropsychol Soc 2005, 11 (3), pp 290-302) according to fully standardized procedures as applied in The Maastricht Aging Study (Jolles et al; Maastricht Aging Study; determinants of cognitive aging; Maastricht, The Netherlands, Neuropsych Publishers 1995). Normative data for each individual subject will be derived also from the Maastricht Aging Study using the regression formula as described by Van der Elst et al (Van der Elst et al; J Int Neuropsychol Soc 2005, 11 (3), pp 290-302).
# All subjects within their corresponding groups (either Healthy Elderly n=20 or Impaired Elderly n=20) will be randomized in a double blind fashion to 1 of 4 treatment sequences, each sequence consisting of the following periods: A) Placebo+placebo; B) Roflumilast 100 mcg+placebo; C) Roflumilast […]+placebo and D) Roflumilast 1000 mcg (500+500 mcg) according to a computer-generated allocation schedule in a cross-over design. Between each of the four treatment sequences there will be a 12 days washout period.
# Cognitive status will be quantified using computerized cognitive battery, a validated tool for measuring the cognitive impairment in humans. The battery will consist of: VLT, Spatial Memory Task (SMT), Stroop Task, and Bond-Lader Visual Analogue Scales (BL-VAS).
# Verbal learning task (VLT) The Rey VLT as modified by Riedel and colleagues (Riedel, Klaasen et al, Psychopharmacology (Berlin) 1999 Vol 141(4) pp 362-369) is used. This modified VLT maximizes the possibility of measuring enhancement rather than only impairment, by means of prolonging the list. The test consists of a list of 30 monosyllabic words (18 nouns and 12 adjectives). The words are shown on a computer screen for 1 second. Three trials with the same item sequence are presented. Each trial ends with a free recall of the words (immediate recall). Forty-five minutes after the first exposure, the subject is asked to recall as many words as possible (delayed recall). […] The words are shown on a computer screen for 2 seconds and subjects are asked to rate whether they were presented in the learning trial by a “yes/no” response. The inter-word interval is 2 seconds. 24 Hours after the immediate recall, subjects will return to the lab for a second delayed recall and recognition. The remaining 15 old words and 15 new words will be presented during recognition. EEG will be recorded during the immediate recall and the first recognition test on the test day. […]
# [2] = system: healthy adults (18 to 35 years); test: EEG Event Related Potentials (P600) during VLT in healthy adults; format: in vivo, human; conditions: single oral dose of 100 mcg
# Source text: Event Related Potential Analysis An electroencephalogram (EEG) cap was used to place a set of 32 EEG electrodes according to the international 10-20 system on the subjects. Event Related Potentials (ERPs) were extracted by averaging the responses within an epoch of 100 ms before and 1000 ms after stimulus onset covering P300, N400, and P600. Separate averages were made for correct and incorrect responses within a task and for different trial types. EEG measurements were done simultaneously with VLT testing. ERPs were calculated from the words that were called during immediate recall (encoding), and from the words that were recognized and from those that were not during the recognition condition at 45 minutes. The ERP components of P300, N400, and P600 were compared to examine whether the initial stimulus processing during the learning trials differs from word to word. Finally, ERPs to the old and new items during the recognition task were measured.
# Tests of Within-Subjects Contrasts were regarded for immediate and delayed free recall scores and for the summed immediate recall score (i.e. immediate 1+immediate 2+immediate 3). The factor Treatment (4 levels; placebo, roflumilast 100 mcg, roflumilast 300 mcg and roflumilast 1000 mcg) was included as a within subjects factor. […] Peak and latency values of three memory related ERP's were analysed; i.e. P300, N400 and P600. […]
smiles,measurement,setting,value
"O=C(Nc1c(Cl)cncc1Cl)c1ccc(OC(F)F)c(OCC2CC2)c1 [roflumilast, N-(3,5-dichloropyridin-4-yl)-3-cyclopropylmethoxy-4-difluoromethoxybenzamide]",number of words on the 3rd trial of VLT,"[1]; 100 mcg single dose, elderly subjects, placebo 8.81",10.28 words
same,placebo-corrected fold-improvement in VLT,"[1]; 100 mcg single dose, interim data of the elderly study",1.16
same,"increase in the number of correct words recalled after 45 min delayed recall trial of VLT, compared to placebo","[1]; 100 mcg single dose, pooled interim analysis",1.7 words
same,"increase in the number of correct words immediately recalled after the 3rd trial of VLT, compared to placebo","[1]; 100 mcg single dose, pooled interim analysis, 9 Impaired and 4 Healthy Elderly",1.5 words
same,"increase in the number of correct words recalled after 45 min delayed recall trial of VLT, compared to placebo","[1]; 1000 mcg single dose, pooled interim analysis",1.6 words
same,amplitude of Event-Related Potential P600 during VLT,[2],strongest increase of amplitude
same,amplitude of Event-Related Potential P600 during VLT,[2]; listed as Roflumilast,increased amplitude
